Results as given in patent publication US5134137A, “Cephalosporin antibiotics” (The Upjohn Company, priority 1990, dated 1992).
Values after ≈ are worked out from the molar mass of the structure shown. Where two headings read alike, the source gives them in different places.

Assays:
Format in all cases: cell-based
[1] = tested on: Escherichia coli; test: MIC, agar dilution, Escherichia coli; settings: Escherichia coli, read-out: MIC
Protocol: (§1) Stock solution of each test antibiotic compound were prepared to have a concentration of 2 mg. of the test compound per milliliter in sterile water of 0.1M ammonium acetate solution. The amount of each compound used was adjusted for base compound activity as calculated from the purity data for the selected batch of compound.
(§2) The dilution procedure described by Washington and Sutter [Manual of Clinical Microbiology, 3rd, Edit. (Lennett, E. H. et al, Eds.), pp. 453-458 (1980), American Society for Microbiology, Washington, D.C.] was modified so that serial concentrations of 128 to 0.0625 microgram/ml. in sterile water was obtained. Then 1.5 ml. aliquots of these test antibiotic dilution mixtures are added to 13.5 molten (50° C.) Mueller-Hinton agar. Each resulting mixture is poured into 15×100 mm, sterile Petri plates and allowed to dry at room temperature overnight.
(§3) Test bacterial cultures are maintained at -70° C. on glass beads. [See R. J. Yancey, Jr. et al, Amer. Jr. of Vet. Research, 48, No. 7, pp. 1050-1053, (1987)]. At least one bacteria-laden bead per culture is dropped into one ml. of brain heart infusion (BHI) broth for overnight culture at 37° C. in 5% V/V carbon dioxide in air atmosphere.
(§4) On the data of assay, 2 to 8 drops of the bacterial broth cultures are transferred to fresh BHI broth (1 ml.) and the mixture is incubated for 4 to 6 hours at 37° C. in a 5% V/V carbon dioxide in air atmosphere. The resulting cultures are then diluted to match a 0.5 MacFarland standard and further diluted 1:20 V/V with sterile saline solution.
(§5) A 0.001 ml. drop of the resulting mixture, containing approximately 10^3 to 10^4 colony forming units (CFU) of each test bacteria organism, is dispensed onto the surface of the test antibiotic compound test plates with a Steer's type replicator. The resulting innoculated plates are incubated 16 to 18 hours at 37° C. with a carbon dioxide atmosphere.
as §1, with “Stock solutions” for “Stock solution”
as §2, with “mm.” for “mm,”
as §2, with “for Microbiology.” for “for Microbiology,”, “15×100 mm.” for “15×100 mm,”
as §3, with “culture” for “cultures”
(§6) On the day of assay, 2 to 8 drops of the bacterial broth cultures are transferred to fresh BHI broth (1 ml.) and the mixture is incubated for 4 to 6 hours at 37° C. in a 5% V/V carbon dioxide in air atmosphere. […]

[2] = tested on: Streptococcus dysgalactiae; test: MIC, agar dilution, Streptococcus dysgalactiae; settings: Streptococcus dysgalactiae; strain UC251; read-out: MIC
Protocol: as §1, §2, §3, §4, §5
as §1, with “Stock solutions” for “Stock solution”
as §2, with “mm.” for “mm,”
as §2, with “for Microbiology.” for “for Microbiology,”, “15×100 mm.” for “15×100 mm,”
as §3, with “culture” for “cultures”
as §6

[3] = tested on: Pseudomonas aeruginosa; test: MIC, agar dilution, Pseudomonas aeruginosa; settings: Pseudomonas aeruginosa; strain ATCC27853; read-out: MIC
Protocol: as §1, §2, §3, §4, §5
as §1, with “Stock solutions” for “Stock solution”
as §2, with “mm.” for “mm,”
as §2, with “for Microbiology.” for “for Microbiology,”, “15×100 mm.” for “15×100 mm,”
as §3, with “culture” for “cultures”
as §6

[4] = tested on: Streptococcus suis; test: MIC, agar dilution, Streptococcus suis; settings: Streptococcus suis; strain 650-2; read-out: MIC
Protocol: as §1, §2, §3, §4, §5
as §1, with “Stock solutions” for “Stock solution”
as §2, with “mm.” for “mm,”
as §2, with “for Microbiology.” for “for Microbiology,”, “15×100 mm.” for “15×100 mm,”
as §3, with “culture” for “cultures”
as §6

[5] = tested on: Enterococcus faecalis; test: MIC, agar dilution, Enterococcus faecalis; settings: Enterococcus faecalis; strain UC694; read-out: MIC
Protocol: as §1, with “Stock solutions” for “Stock solution”
as §2, §3, §4, §5, §1
as §2, with “mm.” for “mm,”
as §2, with “for Microbiology.” for “for Microbiology,”, “15×100 mm.” for “15×100 mm,”
as §3, with “culture” for “cultures”
as §6

[6] = tested on: Salmonella typhimurium; test: MIC, agar dilution, Salmonella typhimurium; settings: Salmonella enterica, read-out: MIC
Protocol: as §1, §2, §3, §4, §5
as §1, with “Stock solutions” for “Stock solution”
as §2, with “mm.” for “mm,”
as §2, with “for Microbiology.” for “for Microbiology,”, “15×100 mm.” for “15×100 mm,”
as §3, with “culture” for “cultures”
as §6

[7] = tested on: Pasteurella hemolytica; test: MIC (minimum inhibitory concentration), agar dilution, Pasteurella hemolytica; settings: Pasteurella, read-out: MIC
Protocol: as §1, §2, §3, §4, §5
as §1, with “Stock solutions” for “Stock solution”
as §2, with “mm.” for “mm,”
as §2, with “for Microbiology.” for “for Microbiology,”, “15×100 mm.” for “15×100 mm,”
as §3, with “culture” for “cultures”
as §6

[8] = tested on: Staphylococcus aureus; test: MIC, agar dilution, Staphylococcus aureus; settings: Staphylococcus aureus, read-out: MIC
Protocol: as §1, §2, §3, §4, §5
as §1, with “Stock solutions” for “Stock solution”
as §2, with “mm.” for “mm,”
as §2, with “for Microbiology.” for “for Microbiology,”, “15×100 mm.” for “15×100 mm,”
as §3, with “culture” for “cultures”
as §6

[9] = tested on: Pasteurella multocida; test: MIC, agar dilution, Pasteurella multocida; settings: Pasteurella multocida; strain UC9581; read-out: MIC
Protocol: as §1, §2, §3, §4, §5
as §1, with “Stock solutions” for “Stock solution”
as §2, with “mm.” for “mm,”
as §2, with “for Microbiology.” for “for Microbiology,”, “15×100 mm.” for “15×100 mm,”
as §3, with “culture” for “cultures”
as §6

[10] = tested on: Enterococcus faecium; test: MIC, agar dilution, Enterococcus faecium; settings: Enterococcus faecium; strain UC241; read-out: MIC
Protocol: as §1, with “Stock solutions” for “Stock solution”
as §2, §3, §4, §5, §1
as §2, with “mm.” for “mm,”
as §2, with “for Microbiology.” for “for Microbiology,”, “15×100 mm.” for “15×100 mm,”
as §3, with “culture” for “cultures”
as §6

[11] = tested on: Salmonella choleraesuis; test: MIC, agar dilution, Salmonella choleraesuis; settings: Salmonella enterica, read-out: MIC
Protocol: as §1, §2, §3, §4, §5
as §1, with “Stock solutions” for “Stock solution”
as §2, with “mm.” for “mm,”
as §2, with “for Microbiology.” for “for Microbiology,”, “15×100 mm.” for “15×100 mm,”
as §3, with “culture” for “cultures”
as §6

[12] = tested on: Corynebacterium pyogenes; test: MIC, agar dilution, Corynebacterium pyogenes; settings: strain 213-2; read-out: MIC
Protocol: as §1, §2, §3, §4, §5
as §1, with “Stock solutions” for “Stock solution”
as §2, with “mm.” for “mm,”
as §2, with “for Microbiology.” for “for Microbiology,”, “15×100 mm.” for “15×100 mm,”
as §3, with “culture” for “cultures”
as §6

[13] = tested on: Streptococcus uberis; test: MIC, agar dilution, Streptococcus uberis; settings: Streptococcus uberis, read-out: MIC
Protocol: as §1, §2, §3, §4, §5
as §1, with “Stock solutions” for “Stock solution”
as §2, with “mm.” for “mm,”
as §2, with “for Microbiology.” for “for Microbiology,”, “15×100 mm.” for “15×100 mm,”
as §3, with “culture” for “cultures”
as §6

[14] = tested on: Bordetella bronchiseptica; test: MIC, agar dilution, Bordetella bronchiseptica; settings: Bordetella bronchiseptica; strain UC6313; read-out: MIC
Protocol: as §1, §2, §3, §4, §5
as §1, with “Stock solutions” for “Stock solution”
as §2, with “mm.” for “mm,”
as §2, with “for Microbiology.” for “for Microbiology,”, “15×100 mm.” for “15×100 mm,”
as §3, with “culture” for “cultures”
as §6

[15] = tested on: Micrococcus luteus; test: MIC, agar dilution, Micrococcus luteus; settings: Micrococcus luteus; strain UC130; read-out: MIC
Protocol: as §1, §2, §3, §4, §5
as §1, with “Stock solutions” for “Stock solution”
as §2, with “mm.” for “mm,”
as §2, with “for Microbiology.” for “for Microbiology,”, “15×100 mm.” for “15×100 mm,”
as §3, with “culture” for “cultures”
as §6

[16] = tested on: Streptococcus agalactiae; test: MIC, agar dilution, Streptococcus agalactiae; settings: Streptococcus agalactiae, read-out: MIC
Protocol: as §1, §2, §3, §4, §5
as §1, with “Stock solutions” for “Stock solution”
as §2, with “mm.” for “mm,”
as §2, with “for Microbiology.” for “for Microbiology,”, “15×100 mm.” for “15×100 mm,”
as §3, with “culture” for “cultures”
as §6

[17] = tested on: Streptococcus bovis; test: MIC, agar dilution, Streptococcus bovis; settings: Streptococcus equinus; strain UC6281; read-out: MIC
Protocol: as §1, §2, §3, §4, §5
as §1, with “Stock solutions” for “Stock solution”
as §2, with “mm.” for “mm,”
as §2, with “for Microbiology.” for “for Microbiology,”, “15×100 mm.” for “15×100 mm,”
as §3, with “culture” for “cultures”
as §6

With `CO/N=C(\C(=O)N[C@@H]1C(=O)N2C(C(=O)O)=C(CSSCC3=C(C(=O)O)N4C(=O)[C@@H](NC(=O)/C(=N\OC)c5csc(N)n5)[C@H]4SC3)CS[C@H]12)c1csc(N)n1` [Example 5, 1,1-bis-(7β)-(2-(2-amino-1,3-thiazol-4-yl)-(Z)-2-(methoxyimino)acetamido-4-carboxy-3-cephem-3-yl)dimethyldisulfide] the MIC ([1]; strain UC3784) was 2 µg/mL (≈ 2.33 µM), the MIC ([1]; strain UC6720) was 2 µg/mL (≈ 2.33 µM) and the MIC ([1]; strain UC9670) was 2 µg/mL (≈ 2.33 µM). For the same compound, the MIC [2] was ≤ 0.06 µg/mL, the MIC [3] was > 32 µg/mL and the MIC [4] was ≤ 0.06 µg/mL. The MIC [5] was > 32 µg/mL, the MIC ([6]; TYPHIMURIUM / UC6162, strain UC6162) was 2 µg/mL (≈ 2.33 µM) and the MIC ([6]; TYPHIMURIUM / UC6164, strain UC6164) was 2 µg/mL (≈ 2.33 µM). For the same compound, the MIC ([7]; strain UC6531) was ≤ 0.06 µg/mL, the MIC ([7]; strain UC6532) was ≤ 0.06 µg/mL and the MIC ([7]; strain UC9582) was ≤ 0.06 µg/mL. It also gave an MIC ([8]; strain UC6093) of 16 µg/mL (≈ 18.7 µM), an MIC ([8]; strain UC6097) of 16 µg/mL (≈ 18.7 µM) and an MIC ([8]; strain UC9203) of 16 µg/mL (≈ 18.7 µM). The MIC [9] was ≤ 0.06 µg/mL, the MIC [10] was > 32 µg/mL and the MIC ([11]; CHOLERAESUIS / UC6073, strain UC6073) was 4 µg/mL (≈ 4.67 µM). It also gave an MIC ([11]; CHOLERAESUIS / UC6077, strain UC6077) of 8 µg/mL (≈ 9.33 µM), an MIC [12] of 0.25 µg/mL (≈ 0.292 µM) and an MIC ([13]; strain UC3946) of 0.25 µg/mL (≈ 0.292 µM). The MIC ([13]; strain UC6159) was 16 µg/mL (≈ 18.7 µM), the MIC [14] was > 32 µg/mL and the MIC [15] was ≤ 0.06 µg/mL. The MIC ([16]; strain UC3947) was ≤ 0.06 µg/mL, the MIC ([16]; strain UC6892) was ≤ 0.06 µg/mL and the MIC [17] was ≤ 0.06 µg/mL.
